In patent publication US20210179655A1, “Prodrugs of a JAK Inhibitor Compound for Treatment of Gastrointestinal Inflammatory Disease” (THERAVANCE BIOPHARMA R&D IP, LLC, priority 2015, published 2021):

Assays:
[1] = Metabolic stability in homogenates from rat upper and lower intestinal content; format: in vitro ADME; settings: 37° C.; for half-life: 10 μM; for half-life at 10 μM: rat, diluted 1:10 in DPBS
Description: The conversion of compound 1 to tofacitinib was evaluated in the intestinal lumen content prepared from the various GI segments isolated from freshly sacrificed rats. Each segment of content from the duodenum, jejunum, ileum, and colon was diluted 1:10 in Dulbecco's phosphate buffer saline (DPBS) solution. […] The incubation was conducted in a water bath at 37° C. and time points were taken at 0, 5, 10, 20, 40 and 60 min. The total incubation volume was 400 μL and 40 μL aliquots were taken at each time point and diluted into 160 μL of 97% ACN+3% formic acid+an internal standard. The samples were centrifuged at 2200 rcf for 10 min and 50 μL of supernatant was diluted into 150 μL of water+1% formic acid.

[2] = Oral pharmacokinetics of compound 1 in cynomolgus monkey; format: in vivo; settings: oral administration of the prodrug
splenic NK cells = assay: Immunosuppression effects in mouse splenic natural killer (NK) cells; format: in vivo
Description: Adult male Balb/C mice (12-14 weeks of age) from Harlan were used for the study. […] Spleens were harvested 30 min or 3 h post last dose and crushed immediately for cell subtype staining. Prior to fixation, fluorophore-labelled antibodies for CD19 (FITC; B cells), CD3e (PE; pan T cells) and DX5 (APC; NK cells) were incubated with splenocyte samples from each animal to allow for simultaneous, multiple subtype % analysis on the flow cytometer. The number of total spleen cells for each animal was measured by Scepter™ 2.0 Handheld Automated Cell Counter.
The absolute number of lymphocyte subtype population (e.g., splenic B, T and NK cells) was calculated from the percentage of each subtype times total spleen cells for each animal. A one way ANOVA, with Dunnett's post hoc test, was used to compare the splenic lymphocytes number of the vehicle and test compound groups. The a level was set at p<0.05. Data were presented as the mean SEM for each group.

[3] = Rat colon fecal homogenate stability; format: in vitro ADME; settings: male, rat colon fecal homogenate supernatant, 10 μM, read-out: T½ (In vitro colonic stability, loss of pro-drug)
Description: The objective of this study was to determine the stability of the present compounds in rat colon fecal homogenate, i.e. the half-life for decomposition in the presence of the β-glucuronidase in rat colon feces.
Following sacrifice of a naïve male rat (˜300 g) by cardiac puncture exsanguination, the colon was ligated and removed to an anaerobic chamber (AS-580, Anaerobe Systems). The fecal content was removed within the chamber and was diluted 1:10 (1 gram to 9 mL phosphate buffer) and then homogenized using a handheld Omni Tissue Master. The fecal homogenate was centrifuged at 2000 g for 10 min to remove bulk and the supernatant was removed and used for the incubations.
Test articles and a positive control (sulfasalazine) were prepared as 10 mM DMSO stocks. The final substrate concentration of each assay was 10 μM (30 μM for compound 5). Reactions were started by adding a 5 μL aliquot of diluted test compound stock into 300 μL of rat fecal supernatant-homogenate. At 0, 15, 30, 60, 90, and 120 min post reaction initiation, a 50 μL aliquot was removed into 200 μL of acetonitrile with 3% formic acid and an internal standard molecule. All samples were centrifuged at 2000 g for 10 min after which 50 μL of supernatant was diluted into 150 μL of water for analysis on an LC-MS system. In vitro half-lives for loss of pro-drug were calculated as follows: (T½=0.693/elimination rate constant).

[4] = tested on: Janus kinase (JAK) family of enzymes, non-JAK enzymes, G-protein coupled receptors, ion channels and transporters; assay: Affinity/potency profiling at JAK, non-JAK enzymes, receptors, ion channels and transporters
JAK1 = JAK1 (Homo sapiens, UniProt P23458); assay: Biochemical JAK kinase assay (LanthaScreen) JAK1
Description: (§1) A panel of four LanthaScreen JAK biochemical assays (JAK1, 2, 3 and Tyk2) were carried in a common kinase reaction buffer (50 mM HEPES, pH 7.5, 0.01% Brij-35, 10 mM MgCl2, and 1 mM EGTA). Recombinant GST-tagged JAK enzymes and a GFP-tagged STAT1 peptide substrate were obtained from Life Technologies.
(§2) Serially diluted compounds were pre-incubated with each of the four JAK enzymes and the substrate in white 384-well microplates (Corning) at ambient temperature for 1 h. ATP was subsequently added to initiate the kinase reactions in 10 μL total volume, with 1% DMSO. […] The JAK1 kinase activity was also tested at 1 mM ATP concentration. […] The plates were allowed to incubate at ambient temperature for 1 h before being read on the EnVision reader (Perkin Elmer).
(§3) For dose-response analysis, percent inhibition data were plotted vs. compound concentrations, and IC50 values were determined from a 4-parameter robust fit model with the Prism software (GraphPad Software). Results were expressed as pIC50 (negative logarithm of IC50) and subsequently converted to pKi (negative logarithm of dissociation constant, Ki) using the Cheng-Prusoff equation.

JAK2 = JAK2 (Homo sapiens, UniProt O60674); assay: Biochemical JAK kinase assay (LanthaScreen) JAK2
Chain of JAK2 (O60674 whole entry): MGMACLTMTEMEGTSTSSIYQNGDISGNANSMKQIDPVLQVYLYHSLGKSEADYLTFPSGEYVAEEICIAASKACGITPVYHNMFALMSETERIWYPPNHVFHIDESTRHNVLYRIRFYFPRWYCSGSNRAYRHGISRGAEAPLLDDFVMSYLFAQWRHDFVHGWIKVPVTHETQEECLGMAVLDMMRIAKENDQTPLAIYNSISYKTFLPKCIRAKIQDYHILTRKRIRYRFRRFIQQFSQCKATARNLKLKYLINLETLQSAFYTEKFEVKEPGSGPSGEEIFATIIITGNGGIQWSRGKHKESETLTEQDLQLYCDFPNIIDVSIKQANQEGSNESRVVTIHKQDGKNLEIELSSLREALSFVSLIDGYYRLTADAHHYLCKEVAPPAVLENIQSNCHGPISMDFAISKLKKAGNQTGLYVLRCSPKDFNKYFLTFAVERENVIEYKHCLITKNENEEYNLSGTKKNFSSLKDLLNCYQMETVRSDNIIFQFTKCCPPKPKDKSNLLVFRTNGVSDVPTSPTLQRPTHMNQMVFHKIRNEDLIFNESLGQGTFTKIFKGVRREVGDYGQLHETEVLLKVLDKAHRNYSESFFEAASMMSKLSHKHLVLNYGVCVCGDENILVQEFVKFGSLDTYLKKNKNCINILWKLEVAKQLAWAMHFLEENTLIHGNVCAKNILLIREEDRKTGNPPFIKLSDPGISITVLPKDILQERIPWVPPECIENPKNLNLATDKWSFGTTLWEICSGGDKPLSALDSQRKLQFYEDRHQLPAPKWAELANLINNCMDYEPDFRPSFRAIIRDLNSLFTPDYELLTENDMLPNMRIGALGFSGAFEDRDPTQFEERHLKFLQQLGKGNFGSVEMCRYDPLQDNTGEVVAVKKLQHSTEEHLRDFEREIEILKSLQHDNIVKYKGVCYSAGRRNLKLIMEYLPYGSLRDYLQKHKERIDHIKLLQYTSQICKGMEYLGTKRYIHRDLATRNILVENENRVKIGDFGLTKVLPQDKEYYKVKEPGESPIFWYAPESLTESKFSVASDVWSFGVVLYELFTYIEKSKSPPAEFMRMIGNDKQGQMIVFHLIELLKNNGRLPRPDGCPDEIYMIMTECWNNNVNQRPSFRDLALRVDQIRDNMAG
Description: as §1, §2, §3

Chain of JAK1 (P23458 whole entry): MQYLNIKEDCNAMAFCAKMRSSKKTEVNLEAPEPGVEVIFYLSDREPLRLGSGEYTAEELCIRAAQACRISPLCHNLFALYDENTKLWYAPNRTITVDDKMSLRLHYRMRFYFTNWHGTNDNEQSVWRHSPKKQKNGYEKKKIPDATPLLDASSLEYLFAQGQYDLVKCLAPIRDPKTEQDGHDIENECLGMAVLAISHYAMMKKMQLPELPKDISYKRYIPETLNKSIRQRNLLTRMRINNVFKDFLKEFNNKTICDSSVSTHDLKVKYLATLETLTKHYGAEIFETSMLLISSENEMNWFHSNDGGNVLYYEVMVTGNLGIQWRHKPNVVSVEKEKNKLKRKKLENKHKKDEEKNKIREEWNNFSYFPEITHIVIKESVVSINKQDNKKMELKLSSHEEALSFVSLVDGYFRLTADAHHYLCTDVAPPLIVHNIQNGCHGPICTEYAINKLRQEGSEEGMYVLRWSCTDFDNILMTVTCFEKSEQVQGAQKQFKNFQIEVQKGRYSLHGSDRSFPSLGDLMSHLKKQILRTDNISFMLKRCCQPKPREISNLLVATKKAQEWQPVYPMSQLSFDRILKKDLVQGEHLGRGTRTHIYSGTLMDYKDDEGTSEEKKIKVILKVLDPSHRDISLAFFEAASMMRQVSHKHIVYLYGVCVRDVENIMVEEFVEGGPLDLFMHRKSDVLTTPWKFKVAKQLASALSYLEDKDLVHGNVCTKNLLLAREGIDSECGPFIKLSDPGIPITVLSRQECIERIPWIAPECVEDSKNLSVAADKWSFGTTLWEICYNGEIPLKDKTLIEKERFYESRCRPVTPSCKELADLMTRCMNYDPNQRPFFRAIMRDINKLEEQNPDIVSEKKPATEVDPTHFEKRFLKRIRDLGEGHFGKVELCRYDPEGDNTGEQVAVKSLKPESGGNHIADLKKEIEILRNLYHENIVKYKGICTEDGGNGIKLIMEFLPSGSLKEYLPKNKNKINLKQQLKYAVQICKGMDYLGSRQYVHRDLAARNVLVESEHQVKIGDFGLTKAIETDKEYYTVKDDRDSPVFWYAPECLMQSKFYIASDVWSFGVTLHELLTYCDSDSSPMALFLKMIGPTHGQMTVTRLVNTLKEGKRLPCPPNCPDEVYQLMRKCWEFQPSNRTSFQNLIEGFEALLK

For C[C@@H]1CCN(C(=O)CC#N)C[C@@H]1N(C)c1ncnc2c1ccn2C(=O)N(C)CCN(C)C(=O)OCc1ccc(O[C@@H]2O[C@H](C(=O)O)[C@@H](O)[C@H](O)[C@H]2O)c([N+](=O)[O-])c1 [Compound 1, (2S,3S,4S,5R,6S)-6-(4-((((2-(4-(((3R,4R)-1-(2-cyanoacetyl)-4-methylpiperidin-3-yl)(methyl)amino)-N-methyl-7H-pyrrolo[2,3-d]pyrimidine-7-carboxamido)ethyl)(methyl)carbamoyl)oxy)methyl)-2-nitrophenoxy)-3,4,5-trihydroxytetrahydro-2H-pyran-2-carboxylic acid], the half-life ([1]; Colon content) was less than 5 min, the half-life ([1]; Duodenum content) was greater than 60 min and the half-life ([1]; Jejunum content) was greater than 60 min. It also gave a half-life at 10 μM ([1]; colon lumen content, Colon content) of less than 5 min, a half-life at 10 μM ([1]; duodenum lumen content, Duodenum content) greater than 60 min and a half-life at 10 μM ([1]; ileum lumen content, Ileum content) of 34 min. The half-life at 10 μM ([1]; jejunum lumen content, Jejunum content) was greater than 60 min, the “increase in tofacitinib concentration in cecum, proximal, and distal colon tissue versus oral tofacitinib” value [2] was “five- to seven-fold” and the “splenic NK cell counts” value (splenic NK cells; PO (BID) doses up to 10 mg/kg (maximum dose tested), three days, naïve mice) was “unaffected”. For the same molecule, the “Systemic functional activity (splenic NK depletion)” value (splenic NK cells; mouse, oral dosing for three days) was greater than 10 mg/kg, the half-life at 10 μM [3] was 1 to 15 min and the “affinity for, or potency at, JAK enzymes, non-JAK enzymes, GPCRs, ion channels and transporters” value [4] was “no significant affinity for, or potency at”. For the same molecule, the IC50 (JAK1) was greater than 10000 nM, the Ki (JAK1) was greater than 501 nM and the Ki (JAK2) was greater than 631 nM.
